SMILES	melting point [°C]
O=C(NC(Cc1ccccc1)C(=O)O)OCc1ccc(COCc2ccccc2)cc1 (stereo not drawn) [Compound 90, 2-(4-benzyloxymethyl-benzyloxycarbonylamino)-3-phenyl-propionic acid]	78.3 to 79.9
O=C(N[C@H](Cc1ccccc1)C(=O)O)OCc1cc2cc(-c3cc(F)cc(F)c3)ccc2o1 [Compound 99, (R)-2-[5-(3,5-difluoro-phenyl)-benzofuran-2-ylmethoxycarbonylamino]-3-phenyl-propionic acid]	163 to 167
O=C(N[C@H](Cc1ccccc1)C(=O)O)OCc1cc2cc(-c3cccc(F)c3F)ccc2o1 [Compound 100, (R)-2-[5-(2,3-difluoro-phenyl)-benzofuran-2-ylmethoxycarbonylamino]-3-phenyl-propionic acid]	159 to 160
O=C(N[C@H](Cc1ccccc1)C(=O)O)OCc1cc2cc(-c3cccc4c3OCO4)ccc2o1 [Compound 102, (R)-2-(5-benzo[1,3]dioxol-4-yl-benzofuran-2-ylmethoxycarbonylamino)-3-phenyl-propionic acid]	191 to 192
O=C(N[C@H](Cc1ccccc1)C(=O)O)OCc1cc2cc(-c3cc(F)ccc3F)ccc2o1 [Compound 103, (R)-2-[5-(2,5-difluoro-phenyl)-benzofuran-2-ylmethoxycarbonylamino]-3-phenyl-propionic acid]	89.4 to 92.6
O=C(N[C@H](Cc1ccccc1)C(=O)O)OCc1cc2cc(-c3ccc(F)c(F)c3)ccc2o1 [Compound 104, (R)-2-[5-(3,4-Difluoro-phenyl)-benzofuran-2-ylmethoxycarbonylamino]-3-phenyl-propionic acid]	98.9 to 101.7
O=C(N[C@H](Cc1ccc(Cl)cc1)C(=O)O)OCc1cc2cc(-c3ccccc3)ccc2o1 [Compound 106, (R)-3-(4-chloro-phenyl)-2-(5-phenyl-benzofuran-2-ylmethoxycarbonylamino)-propionic acid]	151 to 157
O=C(N[C@H](Cc1ccc(Br)cc1)C(=O)O)OCc1cc2cc(-c3ccccc3)ccc2o1 [Compound 107, (R)-3-(4-bromo-phenyl)-2-(5-phenyl-benzofuran-2-ylmethoxycarbonylamino)-propionic acid]	136 to 140
O=C(N[C@H](Cc1cccc(F)c1)C(=O)O)OCc1cc2cc(-c3ccccc3)ccc2o1 [Compound 108, (R)-3-(3-fluoro-phenyl)-2-(5-phenyl-benzofuran-2-ylmethoxycarbonylamino)-propionic acid]	141.4 to 142.3
O=C(O)CC(NC(=O)OCc1cc2cc(-c3ccccc3)ccc2o1)c1ccccc1 (stereo not drawn) [Compound 109, 3-phenyl-3-(5-phenyl-benzofuran-2-ylmethoxycarbonylamino)-propionic acid]	168 to 169.8
O=C(O)CC(Cc1ccccc1)NC(=O)OCc1cc2cc(-c3ccccc3)ccc2o1 (stereo not drawn) [Compound 110, 4-phenyl-3-(5-phenyl-benzofuran-2-ylmethoxycarbonylamino)-butyric acid]	168 to 169.8
O=C(N[C@@H](Cc1ccc(F)cc1)C(=O)O)OCc1cc2cc(-c3ccc(F)cc3)ccc2o1 [Compound 113, (S)-3-(4-fluoro-phenyl)-2-[5-(4-fluoro-phenyl)-benzofuran-2-ylmethoxycarbonylamino]-propionic acid]	148.3 to 157
O=C(N[C@H](Cc1ccc(F)cc1)C(=O)O)OCc1cc2cc(-c3ccccc3F)ccc2o1 [Compound 114, (R)-3-(4-fluoro-phenyl)-2-[5-(2-fluoro-phenyl)-benzofuran-2-ylmethoxycarbonylamino]-propionic acid]	105.2 to 110.2
O=C(N[C@H](Cc1ccc(F)cc1)C(=O)O)OCc1cc2cc(-c3ccccc3Cl)ccc2o1 [Compound 115, (R)-2-[5-(2-chloro-phenyl)-benzofuran-2-ylmethoxycarbonylamino]-3-(4-fluoro-phenyl)-propionic acid]	86.7 to 100.1
O=C(N[C@H](Cc1ccc(F)cc1)C(=O)O)OCc1cc2cc(-c3ccc4c(c3)OCO4)ccc2o1 [Compound 116, (R)-2-(5-benzo[1,3]dioxol-5-yl-benzofuran-2-ylmethoxycarbonylamino)-3-(4-fluoro-phenyl)-propionic acid]	132 to 134.5
CC(C)(C)c1ccc(-c2ccc3oc(COC(=O)N[C@H](Cc4ccc(F)cc4)C(=O)O)cc3c2)cc1 [Compound 117, (R)-2-[5-(4-tert-butyl-phenyl)-benzofuran-2-ylmethoxycarbonylamino]-3-(4-fluoro-phenyl)-propionic acid]	114.3 to 124.6
O=C(N[C@H](Cc1ccc(Cl)cc1)C(=O)O)OCc1cc2cc(-c3ccc(F)cc3)ccc2o1 [Compound 118, (R)-3-(4-chloro-phenyl)-2-[5-(4-fluoro-phenyl)-benzofuran-2-ylmethoxycarbonylamino]-propionic acid]	130 to 154.5
O=C(N[C@H](Cc1ccc(Br)cc1)C(=O)O)OCc1cc2cc(-c3ccc(F)cc3)ccc2o1 [Compound 119, (R)-3-(4-bromo-phenyl)-2-[5-(4-fluoro-phenyl)-benzofuran-2-ylmethoxycarbonylamino]-propionic acid]	150.6 to 160

SMILES	melting point [°C]
O=C(N[C@H](Cc1cccc(F)c1)C(=O)O)OCc1cc2cc(-c3ccc(F)cc3)ccc2o1 [Compound 120, (R)-3-(3-fluoro-phenyl)-2-[5-(4-fluoro-phenyl)-benzofuran-2-ylmethoxycarbonylamino]-propionic acid]	81.7 to 82.9
O=C(N[C@H](Cc1ccc(F)cc1)C(=O)O)OCc1cc2cc(-c3cc(F)ccc3F)ccc2o1 [Compound 121, (R)-2-[5-(2,5-difluoro-phenyl)-benzofuran-2-ylmethoxycarbonylamino]-3-(4-fluoro-phenyl)-propionic acid]	98 to 101
O=C(N[C@H](Cc1ccc(F)cc1)C(=O)O)OCc1cc2cc(-c3ccc(F)c(F)c3)ccc2o1 [Compound 122, (R)-2-[5-(3,4-difluoro-phenyl)-benzofuran-2-ylmethoxycarbonylamino]-3-(4-fluoro-phenyl)-propionic acid]	97 to 99.1
O=C(N[C@H](Cc1ccc(F)cc1)C(=O)O)OCc1cc2cc(-c3cc(F)cc(F)c3)ccc2o1 [Compound 123, (R)-2-[5-(3,5-difluoro-phenyl)-benzofuran-2-ylmethoxycarbonylamino]-3-(4-fluoro-phenyl)-propionic acid]	174 to 175
O=C(N[C@H](Cc1ccccc1)C(=O)O)OCc1cc2cc(-c3cccnc3)ccc2o1 [Compound 124, (R)-3-phenyl-2-(5-pyridin-3-yl-benzofuran-2-ylmethoxycarbonylamino)-propionic acid]	143 to 145.7
Cc1ccc(-c2cc(COC(=O)NC(Cc3ccccc3)C(=O)O)co2)cc1 (stereo not drawn) [Compound 127, 3-phenyl-2-(5-p-tolyl-furan-3-ylmethoxycarbonylamino)-propionic acid]	67.7 to 68.2
O=C(N[C@@H](Cc1ccccc1)C(=O)O)OCCc1cc2cc(-c3ccccc3)ccc2o1 [Compound 128, (S)-3-phenyl-2-[2-(5-phenyl-benzofuran-2-yl)-ethoxycarbonylamino]-propionic acid]	170.9 to 171.9
O=C(N[C@H](Cc1ccccc1)C(=O)O)OCc1ccc2[nH]c(-c3ccccc3)nc2c1 [Compound 129, (R)-3-Phenyl-2-(2-phenyl-1H-benzoimidazol-5-ylmethoxycarbonylamino)-propionic acid]	165 to 215
Cn1c(-c2ccccc2)nc2cc(COC(=O)N[C@H](Cc3ccccc3)C(=O)O)ccc21 [Compound 130, (R)-2-(1-Methyl-2-phenyl-1H-benzoimidazol-5-ylmethoxycarbonylamino)-3-phenyl-propionic acid]	176 to 177
O=C(N[C@H](Cc1ccccc1)C(=O)O)OCc1ccc2nc(-c3ccccc3)ccc2c1 [Compound 131, (R)-3-phenyl-2-(2-phenyl-quinolin-6-ylmethoxycarbonylamino)-propionic acid]	190 to 191
O=C(N[C@H](Cc1ccccc1)C(=O)O)OCc1ccc2[nH]c(-c3ccccc3)cc2c1 [Compound 132, (R)-3-phenyl-2-(2-phenyl-1H-indol-5-ylmethoxycarbonylamino)-propionic acid]	176 to 177
O=C(NC(Cc1ccccc1)C(=O)O)OCc1ccc(/C=C/c2ccccc2)cc1 (stereo not drawn) [Compound 133, 3-phenyl-2-[4-((E)-styryl)-benzyloxycarbonylamino]-propionic acid]	165 to 168.5
O=C(N[C@H](Cc1ccccc1)C(=O)O)OCc1cc2cc(Cc3ccccc3)ccc2o1 [Compound 134, (R)-2-(5-benzyl-benzofuran-2-ylmethoxycarbonylamino)-3-phenyl-propionic acid]	159.4 to 160.1
O=C(N[C@H](Cc1ccccc1)C(=O)O)OCc1cc2cc(C(=O)c3ccccc3)ccc2o1 [Compound 136, (R)-3-phenyl-2-[5-(1-phenyl-methanoyl)-benzofuran-2-ylmethoxycarbonylamino]-propionic acid]	136.3 to 138.6
O=C(N[C@H](Cc1ccccc1)C(=O)O)OCc1cc2cc(-c3ccc4[nH]ccc4c3)ccc2o1 [Compound 138, (R)-2-[5-(1H-indol-5-yl)-benzofuran-2-ylmethoxycarbonylamino]-3-phenyl-propionic acid]	90 to 95
O=C(N[C@H](Cc1ccccc1)C(=O)O)OCc1ccc2oc(Cc3ccccc3)cc2c1 [Compound 139, (R)-2-(2-benzyl-benzofuran-5-ylmethoxycarbonylamino)-3-phenyl-propionic acid]	108.8 to 110.5
O=C(N[C@H](Cc1ccc(F)cc1)C(=O)O)OCc1ccc2oc(-c3ccc(F)cc3)cc2c1 [Compound 140, (R)-3-(4-fluoro-phenyl)-2-[2-(4-fluoro-phenyl)-benzofuran-5-ylmethoxycarbonylamino]-propionic acid]	201 to 204
O=C(NC(Cc1ccc(F)cc1)C(=O)O)OCc1ccc(-c2ccc(O)cc2)cc1 (stereo not drawn) [Compound 142, 3-(4-fluoro-phenyl)-2-(4′-hydroxy-biphenyl-4-ylmethoxycarbonylamino)-propionic acid]	65 to 74
